Source: US20120282201A1, “NOVEL COMPOUNDS” (priority 2009, published 2012)

Assay: Comparative example: solubility of BMDBM in 1:1 (w/w) mixture of C12-15 alkyl benzoate and a polymeric or solid UV-filter
Format: physicochemical
Text: Where necessary the mixture was centrifuged in order to obtain a clear supernatant.

In the case of `CCCCC(CC)COc1ccc(-c2nc(-c3ccc(OC)cc3)nc(-c3ccc(OCC(CC)CCCC)cc3O)n2)c(O)c1` (stereo not drawn) [BEMT, bis-ethylhexyloxyphenol methoxyphenyl triazine], the “Solubility of BMDBM in C12-15 alkyl benzoate/UV-filter 1:1” value (200 mg BMDBM with 1000 mg of 1:1 (w/w) mixture, supernatant by HPLC after 1 month at RT) is reported as 3 wt.-%, the “Δ solubility of BMDBM related to cosmetic solvent” value (C12-15 alkyl benzoate/UV-filter 1:1) is reported as −4 wt.-% and the “Δ solubility of BMDBM” value (C12-15 alkyl benzoate/UV-filter 1:1 versus C12-15 alkyl benzoate) is reported as −11 wt.-%.
